Test results from PubChem BioAssay AID248 (DTP/NCI, 2004).
Values joined by “and” are separate entries in the source; they are usually repeats but may differ in a detail not shown here. Identical values can stand only once. Toxic doses and inconclusive results are not listed. No stated cut-off is given here; in the data, active means T/C of 150% or more; inactive means T/C below 125%.

Tested on: L1210 leukemia ip in BDF1 mice, survival T/C
Test: NCI In Vivo Anticancer Drug Screen. Data for tumor model L1210 Leukemia (intraperitoneal) in B6D2F1 (BDF1) mice
Settings: endpoint: mean survival time, higher = longer survival
How it was run: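 Transplanted-tumor mice were given test agent; controls received vehicle only. Survival readings from the two groups were divided (treated over control).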

[1] = dose: 100.0 mg/kg/injection, schedule: Q01DX001 (ip), vehicle: carboxymethylcellulose (CMC)
[2] = dose: 200.0 mg/kg/injection, schedule: Q01DX001 (ip), vehicle: carboxymethylcellulose (CMC)
[3] = dose: 100.0 mg/kg/injection, schedule: Q01DX001 (ip), vehicle: Klucel (hydroxypropylcellulose) (HPC)
[4] = dose: 200.0 mg/kg/injection, schedule: Q01DX001 (ip), vehicle: Klucel (hydroxypropylcellulose) (HPC)
[5] = dose: 400.0 mg/kg/injection, schedule: Q01DX001 (ip), vehicle: Klucel (hydroxypropylcellulose) (HPC)
[6] = dose: 50.0 mg/kg/injection, schedule: Q04DX003 (ip), vehicle: Klucel (hydroxypropylcellulose) (HPC)
[7] = dose: 100.0 mg/kg/injection, schedule: Q01DX009 (ip), vehicle: Klucel (hydroxypropylcellulose) (HPC)
[8] = dose: 100.0 mg/kg/injection, schedule: Q04DX003 (ip), vehicle: Klucel (hydroxypropylcellulose) (HPC)
[9] = dose: 200.0 mg/kg/injection, schedule: Q01DX009 (ip), vehicle: Klucel (hydroxypropylcellulose) (HPC)
[10] = dose: 200.0 mg/kg/injection, schedule: Q04DX003 (ip), vehicle: Klucel (hydroxypropylcellulose) (HPC)
[11] = dose: 400.0 mg/kg/injection, schedule: Q01DX009 (ip), vehicle: Klucel (hydroxypropylcellulose) (HPC)
[12] = dose: 100.0 mg/kg/injection, schedule: Q01DX001 (ip), vehicle: saline
[13] = dose: 200.0 mg/kg/injection, schedule: Q01DX001 (ip), vehicle: saline
[14] = dose: 100.0 mg/kg/injection, schedule: Q04DX002 (ip), vehicle: saline with Tween-80
[15] = dose: 200.0 mg/kg/injection, schedule: Q04DX002 (ip), vehicle: saline with Tween-80
[16] = dose: 400.0 mg/kg/injection, schedule: Q04DX002 (ip), vehicle: saline with Tween-80
[17] = dose: 400.0 mg/kg/injection, schedule: Q01DX001 (ip), vehicle: saline

Measured: T/C

[Cl][Pt+2][Cl].[NH-]CC(=O)O.[NH-]CC(=O)O
inactive: dose: 9.7 mg/kg/injection, schedule: Q01DX009 (ip), vehicle: saline 86 % of control | dose: 19.4 mg/kg/injection, schedule: Q01DX001 (ip), vehicle: saline 100 % of control | dose: 19.4 mg/kg/injection, schedule: Q01DX009 (ip), vehicle: saline 89 % of control | dose: 38.8 mg/kg/injection, schedule: Q01DX001 (ip), vehicle: saline 105 % of control | dose: 38.8 mg/kg/injection, schedule: Q01DX009 (ip), vehicle: saline 95 % of control | dose: 77.5 mg/kg/injection, schedule: Q01DX001 (ip), vehicle: saline 109 % of control | dose: 77.5 mg/kg/injection, schedule: Q01DX009 (ip), vehicle: saline 100 % of control | dose: 155.0 mg/kg/injection, schedule: Q01DX001 (ip), vehicle: saline 98 % of control

COc1ccc(-c2ccc(OC)cc2OC)c(OC)c1
inactive: [1] 112 % of control | [2] 107 % of control | dose: 400.0 mg/kg/injection, schedule: Q01DX001 (ip), vehicle: carboxymethylcellulose (CMC) 112 % of control

O=C(O)c1ccccc1C(=O)c1ccccc1
inactive: [3] 97 % of control | [4] 97 % of control | [5] 95 % of control

Nc1nc(=O)n(C2OC(CO)C(O)C2O)c2scnc12 (configuration not stated)
inactive: dose: 50.0 mg/kg/injection, schedule: Q01DX005 (ip), vehicle: saline 107 % of control | dose: 100.0 mg/kg/injection, schedule: Q01DX005 (ip), vehicle: saline 107 % of control

Cc1coc(NS(=O)(=O)c2ccc(N=Nc3cc(N=Nc4ccccc4)c(N)nc3N)cc2)c1C
inactive: [1] 94 % of control | [2] 105 % of control

O=C1c2ccccc2C(=O)N1c1cc(=O)[nH]c(=O)[nH]1
inactive: dose: 25.0 mg/kg/injection, schedule: Q04DX003 (ip), vehicle: Klucel (hydroxypropylcellulose) (HPC) 111 % of control | [6] 92 % of control

CC1CC(C)(C)N/C(=C/C(=O)N2Cc3cc4ccccc4nc3C2)O1 (configuration not stated)
inactive: [3] 86 % of control | [5] 88 % of control

O=c1[nH]cc(CCc2ccccc2)c(=O)[nH]1
inactive: [7] 105 % of control | [8] 94 % of control | [9] 96 % of control | [10] 94 % of control | [11] 98 % of control | dose: 400.0 mg/kg/injection, schedule: Q04DX003 (ip), vehicle: Klucel (hydroxypropylcellulose) (HPC) 93 % of control

CCO/C=N\c1[nH]ncc1C#N
inactive: dose: 50.0 mg/kg/injection, schedule: Q01DX009 (ip), vehicle: Klucel (hydroxypropylcellulose) (HPC) 93 % of control | [7] 107 % of control | [9] 103 % of control

O=C(O)c1cccc(NC(C(=O)c2ccccc2)c2ccccc2)c1 (configuration not stated)
inactive: dose: 50.0 mg/kg/injection, schedule: Q01DX001 (ip), vehicle: Klucel (hydroxypropylcellulose) (HPC) 102 % of control | [3] 102 % of control | [4] 102 % of control

O=C(Cc1ccccc1)C(Cl)c1ccccc1 (configuration not stated)
inactive: [12] 94 % of control | [13] 105 % of control

COCCN(CCOC)C(=O)Nc1cccc(Cl)c1
inactive: [14] 90 % of control | [15] 100 % of control | [16] 106 % of control

O=C(Nc1ccc(F)cc1)Oc1ccc([N+](=O)[O-])cc1
inactive: dose: 25.0 mg/kg/injection, schedule: Q01DX009 (ip), vehicle: saline 106 % of control | dose: 50.0 mg/kg/injection, schedule: Q01DX009 (ip), vehicle: saline 100 % of control | dose: 100.0 mg/kg/injection, schedule: Q01DX009 (ip), vehicle: saline 97 % of control and 106 % of control | dose: 200.0 mg/kg/injection, schedule: Q01DX009 (ip), vehicle: saline 95 % of control | dose: 400.0 mg/kg/injection, schedule: Q01DX009 (ip), vehicle: saline 97 % of control

Cc1c2c(cc3c1sc1ccccc13)CCCC2=O
inactive: [12] 101 % of control | [13] 94 % of control | [17] 101 % of control

O=C(Nc1cc(C(F)(F)F)ccc1Cl)c1ccccc1F
inactive: [14] 102 % of control | [15] 102 % of control | [16] 108 % of control

C1=CC2c3ccccc3C1c1ccccc12
inactive: dose: 100.0 mg/kg/injection, schedule: Q01DX009 (sc), vehicle: olive oil, sesame oil, peanut oil 101 % of control | dose: 100.0 mg/kg/injection, schedule: Q04DX003 (sc), vehicle: olive oil, sesame oil, peanut oil 102 % of control | dose: 200.0 mg/kg/injection, schedule: Q01DX009 (sc), vehicle: olive oil, sesame oil, peanut oil 103 % of control | dose: 200.0 mg/kg/injection, schedule: Q04DX003 (sc), vehicle: olive oil, sesame oil, peanut oil 95 % of control | dose: 400.0 mg/kg/injection, schedule: Q01DX009 (sc), vehicle: olive oil, sesame oil, peanut oil 102 % of control | dose: 400.0 mg/kg/injection, schedule: Q04DX003 (sc), vehicle: olive oil, sesame oil, peanut oil 93 % of control

O=c1[nH]c(-c2ccccc2)c(Br)c(=O)[nH]1
inactive: dose: 100.0 mg/kg/injection, schedule: Q04DX003 (ip), vehicle: saline with Tween-80 97 % of control | dose: 200.0 mg/kg/injection, schedule: Q04DX003 (ip), vehicle: saline with Tween-80 107 % of control | dose: 400.0 mg/kg/injection, schedule: Q04DX003 (ip), vehicle: saline with Tween-80 100 % of control

CCOP(=[Se])(OCC)OCC
inactive: dose: 12.5 mg/kg/injection, schedule: Q01DX009 (ip), vehicle: saline with Tween-80 91 % of control | dose: 25.0 mg/kg/injection, schedule: Q01DX009 (ip), vehicle: saline with Tween-80 107 % of control | dose: 50.0 mg/kg/injection, schedule: Q01DX009 (ip), vehicle: saline with Tween-80 88 % of control

O/N=C/c1ccc(Cl)cc1Cl
inactive: [6] 97 % of control | [3] 94 % of control | [8] 95 % of control | [4] 97 % of control | [10] 97 % of control | [5] 102 % of control

COC(/C=C\C(OC)OC)OC
inactive: dose: 12.5 mg/kg/injection, schedule: Q04DX003 (ip), vehicle: saline 106 % of control | dose: 25.0 mg/kg/injection, schedule: Q04DX003 (ip), vehicle: saline 101 % of control | dose: 50.0 mg/kg/injection, schedule: Q04DX003 (ip), vehicle: saline 101 % of control | [7] 98 % of control | [9] 96 % of control | [11] 96 % of control

CN(C)c1ncnc2c1ncn2Cc1ccccc1
inactive: dose: 100.0 mg/kg/injection, schedule: Q01DX001 (ip), vehicle: saline with Tween-80 92 % of control | dose: 200.0 mg/kg/injection, schedule: Q01DX001 (ip), vehicle: saline with Tween-80 96 % of control

CC1CN(C(C)(C)C)C1
inactive: dose: 100.0 mg/kg/injection, schedule: Q04DX003 (ip), vehicle: acetone 95 % of control

CCC(C)(CC)NC(C)=O
inactive: [8] 99 % of control | [10] 103 % of control

NC1C(O)CCCC1O (configuration not stated)
inactive: [12] 107 % of control | [13] 102 % of control | [17] 102 % of control
